# Like-named read-outs stand apart in the source and are kept apart here.
# Experiments:
# [1] = tested on: platelets; assay: Agonist-induced platelet granule secretion / activation (P-selectin expression by flow cytometry; ADP/ATP release); format: cell-based, human
# Procedure: In order to monitor ATP release, a cocktail of 100 μM SFLLR (synthesized using solid phase Fmoc chemistry on an Applied Biosystems model 430A peptide synthesizer) and 3 mg/ml of luciferin/luciferase (Sigma, St. Louis, Mo.) in a volume of 10 μl is added to 20 μl of PRP. Samples are immediately analyzed for luminescence. Activated platelets supply the ATP necessary for luminescence of the luciferin/luciferase assay. Assays can be performed at high throughput through use of a microtiter plate system, e.g., 384-well plates and a Multidrop 384 (Thermo Labsystems, Helsinki), read with a high density imaging system, e.g., the Tundra system (Imaging Research, St. Catherine's, Ontario).
# In order to assay platelet activation by cell surface marker expression, fresh PRP is isolated from donors who have not ingested aspirin for two weeks prior to donation. PRP (40 μl) is incubated with known or suspected inhibitor in DMSO or DMSO alone for 15 min. The sample is then incubated with the indicated agonist (e.g., SFLLR) for 10 min. Following incubation of the sample with the indicated agonist, 10 μl of reaction mixture is transferred to 5 μl of phycoerythrin (PE)-conjugated AC 1.2 anti-P-selectin antibody (for assessment of P-selectin surface expression) or fluorescein isothiocyanate (FITC)-conjugated PAC-1 antibody (for assessment of GPIIbIIIa activation). PBS (500 μl) is added to the sample after a 20 min incubation and the platelets are analyzed immediately by flow cytometry. Flow cytometry can be performed using, for example, a Becton-Dickinson FACSCalibur flow cytometer or its equivalent. Fluorescent channels are set at logarithmic gain. Ten thousand particles are acquired for each sample. A 530/30 band pass filter is used for FL-1 fluorescence. A 585/42 band pass filter is used for FL-2 fluorescence. FITC is measured in the FL-1 channel and PE is measured in the FL-2 channel. Data are analyzed using, for example, CellQuest software on a Macintosh PowerPC, or their equivalents.
# Compounds were tested for the ability to inhibit agonist-induced ADP/ATP release from platelet dense granules using a luciferin-luciferase reporter system. In this assay, compounds were incubated with platelet-rich plasma (PRP) for 30 min. A cocktail of the platelet agonist and luciferin-luciferase was then added to the wells. Plates were immediately analyzed using a Tundra high density luminescence imager. […] As a control, compounds were also screened in a platelet-free assay for the ability to inhibit luciferin-luciferase upon exposure to ATP.
# Each of the compounds was tested for inhibition of platelet activation in response to the agonists SFLLR (a thrombin mimic), U46619 (a thromboxane A2 mimic), ADP and the phorbol ester PMA.
# Compounds were also tested by flow cytometry for the inhibition of SFLLR-induced GPIIbIIIa activation and P-selectin expression. In these experiments, freshly obtained PRP was prepared from healthy volunteers who had not ingested aspirin for two weeks prior to donation. Forty μl of PRP was incubated with inhibitor in DMSO or DMSO alone for 15 min. The sample was then incubated with the indicated agonist for 10 min. Following incubation of the sample with the indicated agonist, 10 μl of reaction mixture was transferred to 5 μl of PE-conjugated AC1.2 anti-P-selectin antibody (for assessment of P-selectin surface expression) or FITC-conjugated PAC-1 antibody (for assessment of GPIIbIIIa activation). PBS (500 μl) was added to the sample after a 20 min incubation and the platelets were analyzed immediately by flow cytometry. Flow cytometry was performed using a Becton-Dickinson FACSCalibur flow cytometer. Fluorescent channels were set at logarithmic gain. Ten thousand particles were acquired for each sample. A 530/30 band pass filter was used for FL-1 fluorescence. A 585/42 band pass filter was used for FL-2 fluorescence. FITC was measured in the FL-1 channel and PE was measured in the FL-2 channel.
# [2] = tested on: platelet accumulation into thrombus; format: in vivo; conditions: bolus 6 mg/kg/5 min then continuous infusion 3 mg/kg/90 min; P<0.01
# Source text: A preferred animal model involves intravital microscopy of laser-induced thrombi. The method is described by Rosen et al., 2001, Am J Pathol 158, 1613-1622, which is incorporated herein by reference. Minor variations of that method were employed as described below.
# Experimental mice are pre-anesthetized and surgically prepared. A tracheal tube is placed to facilitate breathing and the jugular vein is canulated to allow for maintenance of anesthetic and introduction of compound. The cremaster muscle is then exteriorized. The muscle is affixed over a glass slide, allowing illumination from below. A steady drip of a sodium-bicarbonate buffered salt solution is maintained throughout the experiment to keep the exposed muscle moist. Blood flow in the muscle is visualized using a 40× water immersion lens and epi-illuminated with an appropriately filtered light source. Alexa 488-labeled anti-mouse CD41 antibody is injected through the jugular canulus to label platelets in vivo.
# Thrombosis is initiated by damaging the vessel wall (of a 30 μm vessel) with a laser pulse from a MicroPoint LASER attached to the microscope. A LASER pulse is delivered, causing damage in an area smaller than 1 μm. The recruitment of platelets to the thrombus is then monitored by the accumulation of (activated) Alexa 488-labeled platelets at the ablation site using fluorescence microscopy, and the process is recorded digitally. The method thus permits in vivo analysis of platelet activation as measured by platelet aggregation and thrombosis.
# The degree of embolization in an untreated mouse can be quantified using software for image analysis, e.g., BioQuant True Color Windows (Biometrics, Nashville, Tenn.), as described in Rosen et al., 2001, supra. The software package permits the determination of the “integrated optical density” or IOD of the thrombus.
# Using quantitative intravital fluorescence videomicroscopy with high temporal resolution (111 images/second), the effect of PDE3 inhibition on the platelet recruitment into thrombi was directly observed over time. Platelets were fluorescently labeled by infusing rat-anti-mouse CD41 and Alexa 488-anti-rat IgG through a cannulated jugular vein. The cremaster microvasculature was exposed and mapped and suitable arteriole segments were selected for laser-induced injury. A series of control injuries were generated prior to infusion of the inhibitory compound. The power and the number of laser pulses required to generate each thrombus was recorded. Platelet accumulation to the thrombi following laser ablation was recorded using digital videomicroscopy. The thrombus total fluorescence in each frame of the videos was analyzed using Slidebook software for digital videomicroscopy. The pyridazinone compound was then infused. Following a 15 minute incubation, a series of experimental injuries were generated 250 μm proximal, with relationship to blood flow, of the first injury and the resultant thrombi were recorded. The power and the number of pulses required to induce the control thrombus was used to induce the experimental thrombus. The control and experimental thrombi constituting a pair were compared for statistical analysis. The total fluorescence intensity of the thrombi before and after the infusion of pyridazinone compound was recorded.
# Images from a representative experiment of the recruitment of fluorescently-labeled […] platelets into a growing thrombus over time is shown in FIG. 9A.
# [3] = tested on: mouse platelets
# [4] = patients suffering intermittent claudication; cited from earlier work
# [5] = molecular target: platelet cGMP-inhibited phosphodiesterase (Homo sapiens, UniProt Q14432); conditions: Omburo et al., 1995; cited from earlier work
# platelet cGMP-inhibited phosphodiesterase, sequence (Q14432 whole entry): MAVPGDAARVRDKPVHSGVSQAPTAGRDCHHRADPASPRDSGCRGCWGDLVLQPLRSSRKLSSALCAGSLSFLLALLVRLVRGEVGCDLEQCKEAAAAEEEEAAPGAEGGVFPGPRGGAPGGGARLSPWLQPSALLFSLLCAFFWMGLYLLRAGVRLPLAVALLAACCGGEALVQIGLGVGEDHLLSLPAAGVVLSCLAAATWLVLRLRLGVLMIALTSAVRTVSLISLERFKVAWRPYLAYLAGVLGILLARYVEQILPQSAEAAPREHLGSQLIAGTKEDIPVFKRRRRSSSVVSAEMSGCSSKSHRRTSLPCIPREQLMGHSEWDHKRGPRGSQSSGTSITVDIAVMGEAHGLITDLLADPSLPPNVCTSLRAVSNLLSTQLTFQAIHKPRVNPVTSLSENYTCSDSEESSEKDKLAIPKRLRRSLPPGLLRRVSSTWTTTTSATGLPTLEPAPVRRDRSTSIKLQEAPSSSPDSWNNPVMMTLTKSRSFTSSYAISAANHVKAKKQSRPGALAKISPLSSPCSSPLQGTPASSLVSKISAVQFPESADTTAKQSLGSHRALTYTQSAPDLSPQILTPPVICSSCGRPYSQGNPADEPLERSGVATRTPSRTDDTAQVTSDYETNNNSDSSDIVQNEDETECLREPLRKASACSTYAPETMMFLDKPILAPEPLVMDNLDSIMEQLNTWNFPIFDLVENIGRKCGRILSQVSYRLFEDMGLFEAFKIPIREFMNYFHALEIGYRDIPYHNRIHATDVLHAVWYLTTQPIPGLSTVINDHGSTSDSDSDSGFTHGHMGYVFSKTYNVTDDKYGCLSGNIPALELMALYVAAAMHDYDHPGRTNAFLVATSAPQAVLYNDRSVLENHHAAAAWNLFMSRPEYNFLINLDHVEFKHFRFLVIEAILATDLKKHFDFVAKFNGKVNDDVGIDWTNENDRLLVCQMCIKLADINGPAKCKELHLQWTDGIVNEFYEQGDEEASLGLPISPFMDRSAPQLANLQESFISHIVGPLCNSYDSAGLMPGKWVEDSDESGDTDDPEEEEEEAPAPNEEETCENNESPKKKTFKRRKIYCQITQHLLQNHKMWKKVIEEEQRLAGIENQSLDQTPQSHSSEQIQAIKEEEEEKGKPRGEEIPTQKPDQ
compound,measurement,setting,value
"9-methylene-4-(alkyl)-2,3,4,9-tetrahydro-1H-cyclopenta(b)quinoline",IC50,"[1]; agonist ADP, read-out: IC50s of inhibition of platelet granule secretion induced with ADP",650 µM
same,IC50,"[1]; agonist PMA, read-out: IC50s of inhibition of platelet granule secretion induced with PMA",300 µM
same,IC50,"[1]; agonist SFLLR, read-out: IC50s of inhibition of platelet granule secretion induced with SFLLR",5 µM
same,IC50,"[1]; agonist U-46619, read-out: IC50s of inhibition of platelet granule secretion induced with U-46619",400 µM
same,Inhibition of thrombosis following laser-induced injury,[2],greater than 80%
same,Activation of mouse platelets by several platelet agonists,[3],inhibits
O=C1CCc2cc(OCCCCc3nnnn3C3CCCCC3)ccc2N1 [cilostazol],Increase of distance of pain free walking,[4],up to 59%
"c1cnc2c(c1)ccc1cccnc12 [[1,10]phenanthroline]",IC50,[5],~2000 µM
